Test results reported in PubChem BioAssay (NCI).
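Five compound concentrations were applied to cells in 96-well plates for 48 hours; endpoints were derived by simple linear interpolation of the resulting dose-response curve. GI50 = concentration required for 50% inhibition of growth. The concentration for full growth arrest is given as TGI.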

Legend:
Experiment in all cases: growth of human tumour cells (NCI), 48 h
[1] = tested on: NCI-H23 lung
[2] = tested on: NCI-H460 lung
[3] = tested on: NCI-H522 lung
[4] = tested on: NCI/ADR-RES ovarian
[5] = tested on: OVCAR-3 ovarian
[6] = tested on: OVCAR-4 ovarian
[7] = tested on: OVCAR-5 ovarian
[8] = tested on: OVCAR-8 ovarian
[9] = tested on: PC-3 prostate
[10] = tested on: RPMI-8226 leukemia
[11] = tested on: RXF 393 renal
[12] = tested on: SF-268 CNS
[13] = tested on: SF-295 CNS
[14] = tested on: SF-539 CNS
[15] = tested on: SK-MEL-2 melanoma
[16] = tested on: SK-MEL-28 melanoma
[17] = tested on: SK-MEL-5 melanoma
[18] = tested on: SK-OV-3 ovarian
[19] = tested on: SN12C renal
[20] = tested on: SNB-19 CNS
[21] = tested on: SNB-75 CNS
[22] = tested on: SR leukemia
[23] = tested on: SW-620 colon
[24] = tested on: T-47D breast
[25] = tested on: TK-10 renal
[26] = tested on: U251 CNS
[27] = tested on: UACC-257 melanoma
[28] = tested on: UACC-62 melanoma
[29] = tested on: UO-31 renal

O=C(Nc1ncc(Cc2ccccc2)s1)c1sc2ccccc2c1Cl
GI50 [1]: 2250 nM | TGI [1]: > 61600 nM | GI50 [2]: 253 nM | TGI [2]: 18400 nM | GI50 [3]: 739 nM | TGI [3]: 15800 nM | GI50 [4]: 573 nM | TGI [4]: 35100 nM | GI50 [5]: 523 nM | TGI [5]: 14400 nM | GI50 [6]: 3320 nM | TGI [6]: 79400 nM | GI50 [7]: 2210 nM | TGI [7]: 64200 nM | GI50 [8]: 2540 nM | TGI [8]: > 100000 nM | GI50 [9]: 948 nM | TGI [9]: > 60400 nM | GI50 [10]: 1330 nM | TGI [10]: > 100000 nM | GI50 [11]: 665 nM | TGI [11]: 10600 nM | GI50 [12]: 1370 nM | TGI [12]: > 100000 nM | GI50 [13]: 753 nM | TGI [13]: 19600 nM | GI50 [14]: 497 nM | TGI [14]: 5230 nM | GI50 [15]: 534 nM | TGI [15]: > 64400 nM | GI50 [16]: 2180 nM | TGI [16]: > 80400 nM | GI50 [17]: 63.4 nM | TGI [17]: 691 nM | GI50 [18]: 2770 nM | TGI [18]: 93700 nM | GI50 [19]: 1240 nM | TGI [19]: > 100000 nM | GI50 [20]: 777 nM | TGI [20]: 59900 nM | GI50 [21]: 368 nM | TGI [21]: 12900 nM | GI50 [22]: 522 nM | TGI [22]: > 100000 nM | GI50 [23]: 476 nM | TGI [23]: > 100000 nM | GI50 [24]: 71.3 nM | TGI [24]: > 100000 nM | GI50 [25]: 4010 nM | TGI [25]: 69100 nM | GI50 [26]: 593 nM | TGI [26]: 26000 nM | GI50 [27]: 1930 nM | TGI [27]: > 66500 nM | GI50 [28]: 147 nM | TGI [28]: 17800 nM | GI50 [29]: 1410 nM | TGI [29]: > 82300 nM
